Read-outs that look alike come from different tables or passages of the source.
Columns and labels:
Male CF1 mice = assay: Mouse antiphenylquinone writhing (PQW) test; type: in vivo; design: Mouse PQW ED50 (mg/kg): unit not given here; conditions: for ED50: Mus musculus, 0.5 h, phenylquinone 1.25 mg/kg i.p., observation beginning 30 min after injection of test compound; for ED50 / Mouse PQW remark: Table 3; for Mouse PQW ED50 (mg/kg): Table 4, 3° carbinols within the scope of U.S. 4,485,109, head prints neither endpoint nor unit; for Mouse PQW remark: remark beside S.C and P.O values
Description: The anti-pheylquinone writhing (PQW) test modified from the methods of Siegmund et al. (Proc. Soc. Exp. Biol. Med. 95: 729-731, 1957) and Blumberg et al. (Proc. Exp. Biol. Med. 118: 763-767, 1965) was used to assess analgesia in mice. Male CF1 mice (Charles River Breeding Laboratories, Wilmington, MA), fasted for 16-22 h and weighing 18-23 g, were injected with randomized and coded doses of test compounds, then challenged with 1.25 mg/kg i.p. phenyl-p-benzoquinone (phenylquinone) 5 min prior to the specified observation time. The phenylquinone solution (0.1 mg/ml in 5% aqueous ethanol) was prepared daily and stored in foil-wrapped amber bottles to limit degradation. Mice were observed 10 min for the presence or absence of the characteristic abdominal constriction and stretching response beginning 30 min after injection of the test compound. Analgetic activity was calculated as the percentage of mice failing to respond to the phenylquinone challenge dose. […] Median effective doses (ED50's) and 95% confidence limits were determined numerically by the methods of Thompson (Bacteriological Rev. 11: 115-145, 1947), and Litchfield and Wilcoxon (J. Pharmacol. Exp. Ther. 96: 99.113, 1949).
The data shown in Table show the PQW ED₅₀ values for the compounds of the aforesaid examples.
Table 4 illustrates that the 3° carbinols within the scope of U.S. 4,485,109 have utility as analgesic agents.

Male CF mice = assay: Antagonism of tetrabenazine-induced depression (exploratory loss and ptosis) in mice; type: in vivo; conditions: Mus musculus, po, 1 h, orally, one hour post-drug, tetrabenazine methane sulfonate 52 mg/kg i.p., read-out: Oral ED₅₀ (mg/kg) for Prevention of Ptosis
Description: The prevention of tetrabenazine-induced sedation and depression in mice is a standard procedure used to detect and compare antidepressant compounds. The activity of antidepressant compounds in this procedure correlates well with human efficacy. (Barnett, et al., Int. J. Neuropharmac. 8: 73-79, 1969, and Vernier, et al., "The Pharmacodynamics of Amitriptyline" in Psychsomatic Medicine (Nodine & Moyer, editors) pp. 683-690, 1962).
Male CF mice (Charles River Breeding Laboratories, Wilmingon, MA), fasted for 16-22 hours and weighing 18-25 g, were injected with randomized and coded does of test compounds, then challenged with 52 mg/kg i.p. tetrabenazine methane sulfonate 30 minutes prior to the specified observation time. The tetrabenazine methane sulfonate solution (5.2 mg/ml in distilled water) was prepared daily and stored in foil-wrapped amber bottles to limit degradation. […] Exploratory loss was defined as failing to move to the perimeter of a 12.7 cm (5 inch) (12.7 cm) circle within 15 seconds of being placed at the center of the circle. Ptosis was defined as both eyelids closed 50% or more compared to normal. Antidepressant activity was calculated as the percentage of mice failing to respond to the tetrabenazine challenge dose. […] Median effective does (ED₅₀'s) were estimated using the Moving Average method of Thompson (Bacteriological Rev. 11: 115-145, 1947).
The data in Table 5 show ED₅₀ values for the compounds of the aforesaid examples.

[1] = po, p.o., read-out: Mouse PQW ED₅₀ (Mg/Kg) P.O
[2] = sc, s.c., read-out: Mouse PQW ED₅₀ (Mg/Kg) S.C

Structure (SMILES) | ED50 (Male CF1 mice; [1]) [mg/kg] | ED50 (Male CF1 mice; [2]) [mg/kg] | Mouse PQW ED50 (mg/kg) (Male CF1 mice; p.o.) | Mouse PQW ED50 (mg/kg) (Male CF1 mice; s.c.) | Mouse PQW remark (Male CF1 mice) | ED50 (Male CF mice) [mg/kg]
CC(O)C1(c2csc3ccccc23)CCN(C)CC1 (stereo not shown) [Example 29] | 47 | 6.8 | – | – | – | –
CN1CCC(c2cccc(O)c2)(C(C)(C)O)CC1 [AA] | – | – | >81.0 | 62.0 | – | –
CN1CCC(c2cccc3ccccc23)(C(C)(C)O)CC1 [Example 50] | 67 | 24 | – | – | – | –
CN1CCC(c2ccc3ccccc3c2)(C(C)(C)O)CC1 [KK] | – | – | 47.0 | 27.0 | – | –
Cc1ccc(C2(C(C)O)CCN(C)CC2)cc1 (stereo not shown) [Example 14] | > 81 | 54 | – | – | – | –
CC(O)C1(c2ccccc2F)CCN(C)CC1 (stereo not shown) [Example 4] | > 81 | > 81 | – | – | Inactive | –
Cc1cc(C)cc(C2(C(C)(C)O)CCN(C)CC2)c1 [U] | – | – | 47.0 | 4.5 | – | –
CC(OCc1ccccc1)C1(c2cccc(Cl)c2)CCN(C)CC1 (stereo not shown) [Example 69] | > 81 | 62 | – | – | – | –
COc1cccc(C2(C(C)(C)O)CCN(C)CC2)c1 [BB] | – | – | 19.0 | 12.0 | – | –
Cc1ccc(C2(C(C)(C)O)CCN(C)CC2)s1 [LL] | – | – | 36.0 | 9.0 | – | –
CC(O)C1(c2ccc3ccccc3c2)CCN(C)CC1 (stereo not shown) [Example 25] | > 81 | 16 | – | – | – | –
COc1ccc(C2(C(C)O)CCN(C)CC2)cc1 (stereo not shown) [Example 17] | > 81 | > 81 | – | – | Inactive | 1.3
CC(O)C1(c2ccc(Br)cc2)CCN(C)CC1 (stereo not shown) [Example 11] | > 81 | > 81 | – | – | Inactive | –
COc1cccc(C2(C3(O)CCCC3)CCN(C)CC2)c1 [FF] | – | – | 47.0 | 16.0 | – | –
CN1CCC(c2cccs2)(C(C)(C)O)CC1 [Example 43] | 36 | 13 | – | – | – | –
CN1CCC(c2ccccn2)(C(C)(C)O)CC1 [Example 46, reference compound] | > 81 | > 81 | – | – | Inactive | –
CC(O)C1(c2cccc(Cl)c2)CCCN(C)CC1 (stereo not drawn) [Example 71, 4-(3'-Chlorophenyl)-α,1-dimethyl-2,3,4,5,6,7-hexahydro-1H-azepine-4-methanol] | 16 | 8.1 | – | – | – | –
CC(=O)OC(C)(C)C1(c2cccc(Cl)c2)CCN(C)CC1 [Example 67, 4-(3'-Chlorophenyl)-α,α,1-trimethyl-4-piperidinemethanol Acetate] | 5.2 | 1.8 | – | – | – | –
CN1CCC(c2ccsc2)(C(C)(C)O)CC1 [Example 44] | 24 | 6.5 | – | – | – | –
CC(O)C1(c2ccc(F)cc2)CCN(C)CC1 (stereo not shown) [Example 6] | > 81 | 54 | – | – | – | –
CN1CCC(c2csc3ccccc23)(C(C)(C)O)CC1 [Example 45] | 54 | 4.2 | – | – | – | –
CC(O)C1(c2ccc(Cl)c(Cl)c2)CCN(C)CC1 (stereo not shown) [Example 9] | 32 | > 81 | – | – | – | –
CN1CCC(c2cccc(Br)c2)(C(C)(C)O)CC1 [Example 41, 4-(3'-Bromophenyl)-α,α,1-trimethyl-4-piperidinemethanol] | 24 | 19 | – | – | – | –
CCOc1cccc(C2(C(C)(C)O)CCN(C)CC2)c1 [HH] | – | – | 32.0 | 9.0 | – | –
CN1CCC(c2cccc(Cl)c2)(C(C)(C)O)C1 (stereo not drawn) [Example 70, 3-(3'Chlorophenyl)-α,α,1-trimethyl-3-pyrrolidinemethanol] | 13 | 10 | – | – | – | –
Cc1ccccc1C1(C(C)O)CCN(C)CC1 (stereo not shown) [Example 12] | > 81 | > 81 | – | – | Inactive | 1.03
COC(C)C1(c2cccc(Cl)c2)CCN(C)CC1 (stereo not shown) [Example 68] | 19 | 6.5 | – | – | – | –

Reference: EP0337167B1, “4-Aryl-4-piperidine (or pyrrolidine or hexahydroazepine) carbinols and heterocyclic analogs thereof” (THE DU PONT MERCK PHARMACEUTICAL COMPANY, priority 1988, dated 1989)
